What was measured:
CAKI-1 = assay: Cytotoxicity against human CAKI-1 cells after 48 hrs by sulforhodamine B assay; format: functional; settings: CAKI-1, 48 h
OVCAR-3 = assay: Cytotoxicity against human OVCAR3 cells after 48 hrs by sulforhodamine B assay; format: functional; settings: OVCAR-3, 48 h
T47D = assay: Cytotoxicity against human T47D cells after 48 hrs by sulforhodamine B assay; format: functional
[1] = Cytotoxicity against human EKVX cells after 48 hrs by sulforhodamine B assay; format: functional
DU-145 = assay: Cytotoxicity against human DU145 cells after 48 hrs by sulforhodamine B assay; format: functional; settings: DU-145, 48 h
SNB-75 = assay: Cytotoxicity against human SNB75 cells after 48 hrs by sulforhodamine B assay; format: functional; settings: SNB-75, 48 h
SF-295 = assay: Cytotoxicity against human SF295 cells after 48 hrs by sulforhodamine B assay; format: functional; settings: SF-295, 48 h
CCRF-CEM = assay: Cytotoxicity against human CCRF-CEM cells after 48 hrs by sulforhodamine B assay; format: functional
RXF 393 = assay: Cytotoxicity against human RXF393 cells after 48 hrs by sulforhodamine B assay; format: functional; settings: RXF 393, 48 h
ACHN = assay: Cytotoxicity against human ACHN cells after 48 hrs by sulforhodamine B assay; format: functional
HCT-15 = assay: Cytotoxicity against human HCT15 cells after 48 hrs by sulforhodamine B assay; format: functional; settings: HCT-15, 48 h
KM12 = assay: Cytotoxicity against human KM12 cells after 48 hrs by sulforhodamine B assay; format: functional; settings: KM12, 48 h
Mus musculus = assay: Toxicity in athymic nude mouse assessed as survival at 400 mg/kg, ip measured after 2 weeks; format: organism-based; design: dose 400 mg/kg, route intraperitoneal; settings: in vivo, 336 h
HOP-62 = assay: Cytotoxicity against human HOP62 cells after 48 hrs by sulforhodamine B assay; format: functional; settings: HOP-62, 48 h
OVCAR-4 = assay: Cytotoxicity against human OVCAR4 cells after 48 hrs by sulforhodamine B assay; format: functional; settings: OVCAR-4, 48 h
HOP-92 = assay: Cytotoxicity against human HOP92 cells after 48 hrs by sulforhodamine B assay; format: functional; settings: HOP-92, 48 h
PC-3 = assay: Cytotoxicity against human PC3 cells after 48 hrs by sulforhodamine B assay; format: functional; settings: PC-3, 48 h
NCI/ADR-RES = assay: Cytotoxicity against human NCI/ADR-RES cells after 48 hrs by sulforhodamine B assay; format: functional
OVCAR-8 = assay: Cytotoxicity against human OVCAR8 cells after 48 hrs by sulforhodamine B assay; format: functional; settings: OVCAR-8, 48 h
SR = assay: Cytotoxicity against human SR cells after 48 hrs by sulforhodamine B assay; format: functional
BT-549 = assay: Cytotoxicity against human BT549 cells after 48 hrs by sulforhodamine B assay; format: functional; settings: BT-549, 48 h
MOLT-4 = assay: Cytotoxicity against human MOLT4 cells after 48 hrs by sulforhodamine B assay; format: functional; settings: MOLT-4, 48 h
NCI-H460 = assay: Cytotoxicity against human NCI-H460 cells after 48 hrs by sulforhodamine B assay; format: functional; settings: NCI-H460, 48 h
RPMI-8226 = assay: Cytotoxicity against human RPMI8226 cells after 48 hrs by sulforhodamine B assay; format: functional; settings: RPMI-8226, 48 h
U-251 = assay: Cytotoxicity against human U251 cells after 48 hrs by sulforhodamine B assay; format: functional; settings: U-251, 48 h
TK-10 = assay: Cytotoxicity against human TK10 cells after 48 hrs by sulforhodamine B assay; format: functional; settings: TK-10, 48 h
SF-268 = assay: Cytotoxicity against human SF268 cells after 48 hrs by sulforhodamine B assay; format: functional; settings: SF-268, 48 h
HCT-116 = assay: Cytotoxicity against human HCT116 cells after 48 hrs by sulforhodamine B assay; format: functional; settings: HCT-116, 48 h
LOX IMVI = assay: Cytotoxicity against human LOXIMVI cells after 48 hrs by sulforhodamine B assay; format: functional
UACC-62 = assay: Cytotoxicity against human UACC62 cells after 48 hrs by sulforhodamine B assay; format: functional; settings: UACC-62, 48 h
NCI-H322M = assay: Cytotoxicity against human NCI-H322M cells after 48 hrs by sulforhodamine B assay; format: functional
IGROV-1 = assay: Cytotoxicity against human IGROV1 cells after 48 hrs by sulforhodamine B assay; format: functional; settings: IGROV-1, 48 h
HL-60(TB) = assay: Cytotoxicity against human HL-60(TB) cells after 48 hrs by sulforhodamine B assay; format: functional; settings: HL-60, 48 h
M14 = assay: Cytotoxicity against human M14 cells after 48 hrs by sulforhodamine B assay; format: functional; settings: M14, 48 h

SMILES	GI50 (CAKI-1) [nM]	GI50 (OVCAR-3) [nM]	GI50 (T47D) [nM]	GI50 [1] [nM]	GI50 (DU-145) [nM]	GI50 (SNB-75) [nM]	GI50 (SF-295) [nM]	GI50 (CCRF-CEM) [nM]	GI50 (RXF 393) [nM]	GI50 (ACHN) [nM]	GI50 (HCT-15) [nM]	GI50 (KM12) [nM]	GI50 (HOP-62) [nM]	GI50 (OVCAR-4) [nM]	GI50 (HOP-92) [nM]	GI50 (PC-3) [nM]	GI50 (NCI/ADR-RES) [nM]	GI50 (OVCAR-8) [nM]	GI50 (SR) [nM]	GI50 (BT-549) [nM]	also measured
COc1cccc(/C=N/NC(=O)c2ccccc2Nc2ccnc(C(F)(F)F)c2)c1O	200	100	501	251	794	251	398	251	200	100	158	398	398	126	158	200	501	251	50.1	398	Activity (Mus musculus): Non-toxic; GI50 (MOLT-4): 10 nM; GI50 (NCI-H460): 200 nM; GI50 (RPMI-8226): 158 nM; GI50 (U-251): 398 nM; GI50 (TK-10): 316 nM; GI50 (SF-268): 631 nM; GI50 (HCT-116): 316 nM; GI50 (LOX IMVI): 200 nM; GI50 (UACC-62): 316 nM; GI50 (NCI-H322M): 251 nM; GI50 (IGROV-1): 25.1 nM; GI50 (HL-60(TB)): 200 nM; GI50 (M14): 398 nM
COc1ccc(C(=O)N/N=C/c2ccc(O)cc2O)cc1Nc1ccnc(C(F)(F)F)c1	631	316	794	398	631	794	794	251	10000	2510	2510	1580	501	631	316	631	7940	794	158	501	Activity (Mus musculus): Non-toxic; GI50 (MOLT-4): 398 nM; GI50 (NCI-H460): 3160 nM; GI50 (RPMI-8226): 2510 nM; GI50 (U-251): 398 nM; GI50 (TK-10): 501 nM; GI50 (SF-268): 316 nM; GI50 (HCT-116): 251 nM; GI50 (LOX IMVI): 501 nM; GI50 (UACC-62): 501 nM; GI50 (NCI-H322M): 501 nM; GI50 (IGROV-1): 631 nM; GI50 (HL-60(TB)): 316 nM; GI50 (M14): 794 nM
O=C(N/N=C/c1cc(Cl)ccc1O)c1ccccc1Nc1ccnc(C(F)(F)F)c1	398	501	794	200	316	316	398	79.4	398	316	158	631	251	251	501	631	398	631	316	794	GI50 (MOLT-4): 200 nM; GI50 (NCI-H460): 316 nM; GI50 (RPMI-8226): 158 nM; GI50 (U-251): 316 nM; GI50 (TK-10): 501 nM; GI50 (SF-268): 251 nM; GI50 (HCT-116): 200 nM; GI50 (LOX IMVI): 251 nM; GI50 (UACC-62): 398 nM; GI50 (NCI-H322M): 398 nM; GI50 (IGROV-1): 316 nM; GI50 (HL-60(TB)): 316 nM; GI50 (M14): 316 nM
CCOc1cccc(/C=N/NC(=O)c2ccccc2Nc2ccnc(C(F)(F)F)c2)c1O	251	316	794	251	794	398	501	251	12600	316	251	501	501	251	158	200	631	501	63.1	398	Activity (Mus musculus): Non-toxic; GI50 (MOLT-4): 126 nM; GI50 (NCI-H460): 251 nM; GI50 (RPMI-8226): 251 nM; GI50 (U-251): 398 nM; GI50 (TK-10): 631 nM; GI50 (SF-268): 794 nM; GI50 (HCT-116): 316 nM; GI50 (LOX IMVI): 200 nM; GI50 (UACC-62): 501 nM; GI50 (NCI-H322M): 398 nM; GI50 (IGROV-1): 39.8 nM; GI50 (HL-60(TB)): 251 nM; GI50 (M14): 631 nM
O=C(N/N=C/c1ccccc1O)c1ccccc1Nc1ccnc(C(F)(F)F)c1	316	316	1260	316	631	316	501	200	63.1	398	200	398	398	251	158	126	398	501	50.1	631	Activity (Mus musculus): Non-toxic; GI50 (MOLT-4): 316 nM; GI50 (NCI-H460): 251 nM; GI50 (RPMI-8226): 200 nM; GI50 (U-251): 501 nM; GI50 (TK-10): 501 nM; GI50 (SF-268): 631 nM; GI50 (HCT-116): 398 nM; GI50 (LOX IMVI): 316 nM; GI50 (UACC-62): 398 nM; GI50 (NCI-H322M): 398 nM; GI50 (IGROV-1): 15.8 nM; GI50 (HL-60(TB)): 398 nM; GI50 (M14): 501 nM

Reference: ChEMBL document CHEMBL2440080, “Synthesis and biological evaluation of novel acylhydrazone derivatives as potential antitumor agents” (Bioorg Med Chem, 2013)
